For this experiment, the target named is T1, MRGPRX2 LAD2 (Homo sapiens, UniProt Q96LB1).
T1 construct: host or cells: LAD2 human mast cells
T1 sequence (Q96LB1 1-330): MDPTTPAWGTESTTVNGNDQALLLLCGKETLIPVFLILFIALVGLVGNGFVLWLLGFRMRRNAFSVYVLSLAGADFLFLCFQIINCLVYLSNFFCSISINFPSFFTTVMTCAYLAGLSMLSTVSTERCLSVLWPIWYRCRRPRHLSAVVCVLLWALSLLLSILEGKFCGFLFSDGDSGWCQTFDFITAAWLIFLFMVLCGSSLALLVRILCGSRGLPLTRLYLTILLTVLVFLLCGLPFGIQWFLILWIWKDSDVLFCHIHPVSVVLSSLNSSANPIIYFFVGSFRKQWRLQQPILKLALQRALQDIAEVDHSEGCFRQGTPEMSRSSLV
Put plainly: LAD2 β-hexosaminidase release assay (degranulation), Cortistatin-14 at EC75. The experiment is classed as cell-based. The note with it: LAD2 cells; 1 hour compound incubation, Cortistatin-14 at EC75 for 30 minutes; percent degranulation (β-hexosaminidase). The procedure:
LAD2 cells obtained from the NIH were cultured in StemPro34 (Gibco) serum-free media supplemented with GlutaMax, penicillin and streptomycin, and 100 ng/mL SCF (Invitrogen). Cells were maintained in a 37° C., 5% CO2 humidified incubator at a concentration of 2-5E5 cells/mL, with hemidepletion once a week.
One day prior to the assay, cells were starved of SCF at a concentration of 2.3E5 cells/mL. On the day of the assay cells were washed twice in Tyrode's Buffer containing 0.04% BSA (assay buffer) and plated in a 96 well-v-bottom assay plate at 20,000 cells per well in 80 μL of assay buffer. Compounds were solubilized at 10 mM DMSO and added as a 10-fold overconcentrated 8-point curve in assay buffer in a volume of 10 μL using the JANUS liquid handler. Assay plates were incubated for 1 hour at 37° C. Cortistatin-14 was diluted in assay buffer to […] its predetermined EC75 and added to the assay plates in a volume of 10 μL. Assay plates were incubated at 37° C. for 30 minutes. After incubation, cells were pelleted and 50 μL of supernatant from each well was transferred to a 96 well flat bottom plate containing 100 μL of substrate solution (3.5 mg/mL p-Nitrophenyl-N-acetyl-β-D-glucosaminide (Sigma Aldrich) in 40 mM Citrate Buffer (Thermo Fisher)). The remaining cell pellets were lysed with 150 μL of 0.1% Triton-X-100 and mixed thoroughly. 50 μL of lysate was transferred to a 96-well flat bottom plate containing 100 μL of substrate solution. Plates with supernatants and lysates were incubated at 37° C. for 90 minutes prior to addition of 50 μL of 400 mM Glycine buffer (pH 10.7). The plates were read on a Perkin Elmer Envision plate reader at an Abs of 405 nanometers. Percent degranulation was calculated and Xlfit was used to calculate an EC50 value for each compound using a 4-parameter logistic curve fitting model. EC50 ranges are reported as follows: A<100 nM; B 0.1-1 μM; C>1 μM.
Turning to `CC(=O)N1C[C@@H](NC(=O)c2cn(CC(F)F)nc2C(F)(F)F)C[C@@H](Nc2cc(C(F)(F)F)nc3ccc(Cl)cc23)C1` [Example 99], the EC50 (in general, the concentration needed to bring the measured effect to its halfway point) is less than 100 nM.

On to `CC(C)(O)Cn1cc(C(=O)N[C@H]2C[C@@H](Nc3cc(C(F)(F)F)nc4ccc(Cl)cc34)CN(C(=O)C3(C(F)(F)F)CC3)C2)c(Cl)n1` [Example 82], for which the EC50 is less than 100 nM.

`O=C(N[C@H]1C[C@@H](Nc2cc(C(F)(F)F)nc3ccc(Cl)cc23)CN(C(=O)[C@H]2CC2(F)F)C1)c1cn(CC(F)(F)F)nc1C1CC1` [Example 74] showed an EC50 of less than 100 nM.

`CC(=O)N1C[C@@H](NC(=O)c2c[nH]c3ncccc23)C[C@@H](Nc2cc(C(F)(F)F)nc3ccc(Cl)cc23)C1` [Example 94] showed an EC50 of less than 100 nM.

Compound `O=C(N[C@H]1C[C@@H](Nc2cc(C(F)(F)F)nc3ccc(Cl)cc23)CN(C(=O)C(F)F)C1)c1cn(CC(F)(F)F)nc1C1CC1` [Example 90] came in with an EC50 of less than 100 nM.

With `CC(=O)N1C[C@@H](NC(=O)c2cn(CC(F)(F)F)nc2C2CC2)C[C@@H](Nc2c(F)c(C(F)(F)F)nc3ccc(Cl)cc23)C1` [Example 136], the EC50 is less than 100 nM.

Compound `CC(=O)N1C[C@@H](NC(=O)c2cn(C3CCS(=O)(=O)CC3)nc2C(F)(F)F)C[C@@H](Nc2cc(C(F)(F)F)nc3ccc(Cl)cc23)C1` [Example 106] gave an EC50 of less than 100 nM.

In turn, `CC(=O)N1C[C@@H](NC(=O)c2cn(CC(F)(F)F)nc2C(F)(F)F)C[C@@H](Nc2cc(C(F)(F)F)nc3ccc(Cl)cc23)C1` [Example 96] displayed an EC50 of less than 100 nM.

`CC(C)(O)Cn1cc(C(=O)N[C@H]2C[C@@H](Nc3cc(C(F)(F)F)nc4ccc(Cl)cc34)CN(C(=O)C(F)(F)c3ccc(C#N)cc3)C2)c(Cl)n1` [Example 88] returned a concentration giving a half-maximal response (EC50) of less than 100 nM.

`CC(=O)N1C[C@@H](NC(=O)c2cn(CC(F)(F)F)nc2C2CC2)C[C@@H](Nc2c(C)c(C(F)(F)F)nc3ccc(Cl)cc23)C1` [Example 135] registered an EC50 of less than 100 nM.

Regarding `CC(=O)N1C[C@@H](NC(=O)c2cn(CC(F)(F)F)nc2C2CC2)C[C@@H](Nc2cc(C(F)(F)F)nc3ccc(OC(F)(F)F)cc23)C1` [Example 132], the EC50 was less than 100 nM.

Regarding `CC(C)(O)Cn1cc(C(=O)N[C@H]2C[C@@H](Nc3cc(C(F)(F)F)nc4ccc(Cl)cc34)CN(C(=O)[C@H]3CC3(F)F)C2)c(Cl)n1` [Example 78], the EC50 was less than 100 nM.

Take `CC(C)(O)Cn1cc(C(=O)N[C@H]2C[C@@H](Nc3cc(C(F)(F)F)nc4ccc(Cl)cc34)CN(C(=O)[C@H](NC(=O)C(F)(F)F)c3ccccc3)C2)c(Cl)n1` [Example 86]: the EC50 was less than 100 nM.

`O=C(N[C@H]1C[C@@H](Nc2cc(C(F)(F)F)nc3ccc(Cl)cc23)CN(C(=O)C(F)(F)F)C1)c1cn(CC(F)(F)F)nc1C1CC1` [Example 89] showed an EC50 of less than 100 nM.

Compound `CC(C)(O)Cn1cc(C(=O)N[C@H]2C[C@@H](Nc3cc(C(F)(F)F)nc4ccc(Cl)cc34)CN(C(=O)C(F)F)C2)c(Cl)n1` [Example 118] had an EC50 of less than 100 nM.

Take `O=C(N[C@H]1C[C@@H](Nc2cc(C(F)(F)F)nc3ccc(Cl)cc23)CN(C(=O)C(F)F)C1)N1CC[C@H](O)C1` [Example 127]: the EC50 was less than 100 nM.

Compound `CC(=O)N1C[C@@H](NC(=O)c2cn(CC(C)(C)O)nc2C(F)(F)F)C[C@@H](Nc2cc(C(F)(F)F)nc3ccc(Cl)cc23)C1` [Example 95] gave a 50% effective concentration (EC50) of less than 100 nM.

As to `O=C(N[C@H]1C[C@@H](Nc2cc(C(F)(F)F)nc3ccc(Cl)cc23)CN(C(=O)C(F)F)C1)c1cn(C2CCC(F)(F)CC2)nc1Cl` [Example 121], the EC50 was less than 100 nM.

Compound `CC(=O)N1C[C@@H](NC(=O)c2cn(CC(C)(C)O)c3ncccc23)C[C@@H](Nc2cc(C(F)(F)F)nc3ccc(Cl)cc23)C1` [Example 98] registered an EC50 of less than 100 nM.

As to `COCc1nn(CC(F)(F)F)cc1C(=O)N[C@H]1C[C@@H](Nc2cc(C(F)(F)F)nc3ccc(Cl)cc23)CN(C(C)=O)C1` [Example 102], the EC50 is less than 100 nM.

In turn, `CC(=O)N1C[C@@H](NC(=O)c2cn(CC(C)(C)O)nc2C)C[C@@H](Nc2cc(C(F)(F)F)nc3ccc(Cl)cc23)C1` [Example 104] gave an EC50 of less than 100 nM.

`CC(=O)N1C[C@@H](NC(=O)c2ccc3[nH]ccc3c2)C[C@@H](Nc2cc(C(F)(F)F)nc3ccc(Cl)cc23)C1` [Example 111] registered an EC50 of less than 100 nM.

Compound `CC(=O)N1C[C@@H](NC(=O)c2cn(CC(F)(F)F)nc2C2CC2)C[C@@H](Nc2cc(C(F)(F)F)nc3cc(F)c(Cl)cc23)C1` [Example 133] gave an EC50 of less than 100 nM.

Regarding `CC(C)(O)Cn1cc(C(=O)N[C@H]2C[C@@H](Nc3c(F)c(C(F)(F)F)nc4ccc(Cl)cc34)CN(C(=O)C(C)(C)F)C2)c(Cl)n1` [Example 83], the EC50 was less than 100 nM.

`CC(=O)N1C[C@@H](NC(=O)c2c[nH]c3cccnc23)C[C@@H](Nc2cc(C(F)(F)F)nc3ccc(Cl)cc23)C1` [Example 97] yielded an EC50 of less than 100 nM.

As for `COCC(F)(F)C(=O)N1C[C@@H](NC(=O)c2cn(CC(C)(C)O)nc2Cl)C[C@@H](Nc2cc(C(F)(F)F)nc3ccc(Cl)cc23)C1` [Example 79], the EC50 was less than 100 nM.

Take `O=C(N[C@H]1C[C@@H](Nc2cc(C(F)(F)F)nc3ccc(Cl)cc23)CN(C(=O)C(F)F)C1)c1cn(CC2(O)CCC2)nc1Cl` [Example 119]: the EC50 was less than 100 nM.

For `O=C(N[C@H]1C[C@@H](Nc2cc(C(F)(F)F)nc3ccc(Cl)cc23)CN(c2ccccn2)C1)c1cn(CC(F)(F)F)nc1C1CC1` [Example 92], the EC50 is less than 100 nM.

`CC(=O)N1C[C@@H](NC(=O)c2cn(CC(F)(F)F)cc2C(F)(F)F)C[C@@H](Nc2cc(C(F)(F)F)nc3ccc(Cl)cc23)C1` [Example 113] yielded an EC50 of less than 100 nM.

In turn, `C[C@H](O)Cn1cc(C(=O)N[C@H]2C[C@@H](Nc3cc(C(F)(F)F)nc4ccc(Cl)cc34)CN(C(=O)C(F)F)C2)c(Cl)n1` [Example 124] yielded an EC50 of less than 100 nM.

Regarding `CC(=O)N1C[C@@H](NC(=O)c2cn(C3CC(F)(F)C3)nc2C(F)F)C[C@@H](Nc2cc(C(F)(F)F)nc3ccc(Cl)cc23)C1` [Example 108], the EC50 is less than 100 nM.

Take `C[C@@H](O)Cn1cc(C(=O)N[C@H]2C[C@@H](Nc3cc(C(F)(F)F)nc4ccc(Cl)cc34)CN(C(=O)C(F)F)C2)c(Cl)n1` [Example 123]: the EC50 is less than 100 nM.

The compound `CC(=O)N1C[C@@H](NC(=O)c2cn(CC(F)(F)F)nc2C2CC2)C[C@@H](Nc2c(F)c(C(F)(F)F)nc3cc(F)c(Cl)cc23)C1` [Example 130] yielded a concentration for a half-maximal effect (EC50) of less than 100 nM.

For the compound `CC(C)(O)Cn1cc(C(=O)N[C@H]2C[C@@H](Nc3cc(C(F)(F)F)nc4ccc(Cl)cc34)CN(C(=O)c3ccccc3F)C2)c(Cl)n1` [Example 85], the 50% effective concentration (EC50) is less than 100 nM.

With `O=C(N[C@H]1C[C@@H](Nc2cc(C(F)(F)F)nc3ccc(Cl)cc23)CN(C2COC2)C1)c1cn(CC(F)(F)F)nc1C1CC1` [Example 91], the EC50 lay in the range of 100 to 1000 nM.

Compound `COCC(F)(F)C(=O)N1C[C@@H](NC(=O)c2cn(CC(F)(F)F)nc2C2CC2)C[C@@H](Nc2cc(C(F)(F)F)nc3ccc(Cl)cc23)C1` [Example 87] displayed a 50% effective concentration (EC50) of less than 100 nM.

`CS(=O)(=O)Nc1cccc(C(=O)N[C@H]2C[C@@H](Nc3cc(C(F)(F)F)nc4ccc(Cl)cc34)CN(C(=O)C(F)F)C2)c1` [Example 72]: the EC50 is less than 100 nM.

The compound `O=C(C(F)F)N1C[C@@H](Nc2nccc3ccccc23)C[C@@H](Nc2cc(C(F)(F)F)nc3ccc(Cl)cc23)C1` [Example 125] returned an EC50 of less than 100 nM.

For the origin of these results see patent publication US20250313569A1, “Pharmaceutical Compounds And Compositions As Modulators Of MAS-Related G-Protein Receptor X2” (Enanta Pharmaceuticals, Inc., priority 2024, published 2025).
